IC50 data for 10 molecules are collected here from patent publication US9682991B2, “Tricyclic compounds for use as kinase inhibitors” (FUNDACIÓN CENTRO NACIONAL DE INVESTIGACIONES ONCOLOGICAS …, priority 2009, dated 2017).

Like-named read-outs stand apart in the source and are kept apart here.

The target in one test is PIM-3 (Homo sapiens (Human), UniProt Q86V86). Nature of the test: PIM-3 biochemical assay (ADP Hunter). As to conditions: semi-quantitative; read-out: PIM3 IC50.
The target in a further test is PIM-2 (Homo sapiens (Human), UniProt Q9P1W9). The test can be described thus: PIM-2 biochemical assay (ADP Hunter). As to conditions: semi-quantitative; read-out: PIM2 IC50. The source says:
The biochemical assay to measure PIM-2 activity relies on the ADP Hunter assay kit (DiscoveRx Corp., Cat. #90-0077), that determines the amount of ADP as direct product of the kinase enzyme activity.

Another test has as its target PIM-1 (Homo sapiens (Human), UniProt P11309). The test can be described thus: PIM-1 biochemical assay (ADP Hunter).
Setting [1] is: read-out: PIM1 IC50, semi-quantitative.

Chain of PIM-2 (Q9P1W9 whole entry): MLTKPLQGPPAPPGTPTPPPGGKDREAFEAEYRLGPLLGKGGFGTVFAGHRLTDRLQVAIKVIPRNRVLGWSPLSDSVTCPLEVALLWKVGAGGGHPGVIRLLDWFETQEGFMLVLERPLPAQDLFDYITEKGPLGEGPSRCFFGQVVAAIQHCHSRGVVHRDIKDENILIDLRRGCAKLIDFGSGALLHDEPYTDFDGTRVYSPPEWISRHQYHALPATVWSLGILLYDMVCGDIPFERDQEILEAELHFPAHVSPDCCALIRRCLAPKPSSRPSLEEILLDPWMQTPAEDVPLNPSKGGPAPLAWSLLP
Chain of PIM-1 (P11309 whole entry): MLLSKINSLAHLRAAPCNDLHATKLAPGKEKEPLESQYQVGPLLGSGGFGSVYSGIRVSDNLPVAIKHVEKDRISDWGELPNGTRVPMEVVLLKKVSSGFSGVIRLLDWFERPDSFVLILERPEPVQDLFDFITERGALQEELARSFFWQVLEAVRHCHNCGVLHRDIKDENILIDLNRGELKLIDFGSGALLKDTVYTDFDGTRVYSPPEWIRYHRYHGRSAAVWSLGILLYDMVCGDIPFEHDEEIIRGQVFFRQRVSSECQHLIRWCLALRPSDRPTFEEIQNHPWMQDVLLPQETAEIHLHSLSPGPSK

For `CN1CCOc2c1c(NCCc1cccnc1)nn1c(-c3cccc(OC(F)(F)F)c3)nnc21` [Example 26, [6-Methyl-3-(3-trifluoromethoxy-phenyl)-7,8-dihydro-6H-9-oxa-1,2,3a,4,6-pentaaza-cyclopenta[a]naphthalen-5-yl]-(2-pyridin-3-yl-ethyl)-amine], the IC50 on PIM-3 and on PIM-2 was 0.1 to 1 µM throughout.
For the molecule `CN1CCOc2c1c(N1CCC(CN)CC1)nn1c(-c3cccc(OC(F)(F)F)c3)nnc21` [Example 55, C-{1-[6-Methyl-3-(3-trifluoromethoxy-phenyl)-7,8-dihydro-6H-9-oxa-1,2,3a,4,6-pentaaza-cyclopenta[a]naphthalen-5-yl]-piperidin-4-yl}-methylamine], the IC50 on PIM-3 and at PIM-1 (setting [1]) was less than 0.1 µM throughout.
In the case of `CN1CCOc2c1c(NCC1CCC(O)CC1)nn1c(-c3cccc(OC(F)(F)F)c3)nnc21` (stereo not drawn) [Example 43, 4-{[6-Methyl-3-(3-trifluoromethoxy-phenyl)-7,8-dihydro-6H-9-oxa-1,2,3a,4,6-pentaaza-cyclopenta[a]naphthalen-5-ylamino]-methyl}-cyclohexanol], the IC50 on PIM-3 and on PIM-1 (setting [1]) was less than 0.1 µM throughout.
On to `COc1ccc(-c2nnc3c4c(c(N5CCC(CNC(C)=O)CC5)nn23)N(C)CCO4)cc1` [Example 92, N-{1-[3-(4-Methoxy-phenyl)-6-methyl-7,8-dihydro-6H-9-oxa-1,2,3a,4,6-pentaaza-cyclopenta[a]naphthalen-5-yl]-piperidin-4-ylmeth I}-acetamide], for which the IC50 on PIM-2 and on PIM-1 (setting [1]) was greater than 1 µM in each case.
In the case of `CN1CCOc2c(NC3CCNCC3)nn3c(-c4cccc(OC(F)(F)F)c4)nnc3c21` [Example 47, [9-Methyl-3-(3-trifluoromethoxy-phenyl)-8,9-dihydro-7H-6-oxa-1,2,3a,4,9-pentaaza-cyclopenta[a]naphthalen-5-yl]-piperidin-4-yl-amine], the concentration for half-maximal inhibition (IC50) was greater than 1 µM on PIM-2 and 0.1 to 1 µM on PIM-1.
For `CN1CCC(CNc2nn3c(-c4cccc(OC(F)(F)F)c4)nnc3c3c2OCCO3)CC1` [Example 41, (1-Methyl-piperidin-4-ylmethyl)-[3-(3-trifluoromethoxy-phenyl)-7,8-dihydro-6,9-dioxa-1,2,3a,4-tetraaza-cyclopenta[a]naphthalen-5-yl]-amine], the IC50 is 0.1 to 1 µM on PIM-2 and less than 0.1 µM at PIM-1 (setting [1]).
As for `COc1ccc(-c2nnc3c4c(c(NCC5CCN(C(=O)OC(C)(C)C)CC5)nn23)N(C)CCO4)cc1` [Example 51, 4-{[3-(4-Methoxy-phenyl)-6-methyl-7,8-dihydro-6H-9-oxa-1,2,3a,4,6-pentaaza-cyclopenta[a]naphthalen-5-ylamino]-methyl}-piperidine-1-carboxylic acid tert-butyl ester], the IC50 on PIM-2 and on PIM-1 (setting [1]) was greater than 1 µM throughout.
As to `CC1COc2c(c(NCC3CCN(C)CC3)nn3c(-c4cccc(OC(F)(F)F)c4)nnc23)N1C` (stereo not drawn) [Example 39, [6,7-Dimethyl-3-(3-trifluoromethoxy-phenyl)-7,8-dihydro-6H-9-oxa-1,2,3a,4,6-pentaaza-cyclopenta[a]naphthalen-5-yl]-(1-methyl-piperidin-4-ylmethyl)-amine], the IC50 is 0.1 to 1 µM on PIM-2 and less than 0.1 µM at PIM-1 (setting [1]).
Take `COc1ccc(-c2nnc3c4c(c(NCc5ccc(F)cc5)nn23)N(C)CCN4C)cc1` [Example 15, (4-Fluoro-benzyl)-[3-(4-methoxy-phenyl)-6,9-dimethyl-6,7,8,9-tetrahydro-1,2,3a,4,6,9-hexaaza-cyclopenta[a]naphthalen-5-yl]-amine]: the IC50 was greater than 1 µM on PIM-2, greater than 1 µM on PIM-1 and 4.35 µM at PIM-1 (read-out: PIM1 IC50).
In the case of `CN1CCOc2c(NCC34CCN(CC3)C4)nn3c(-c4cccc(OC(F)(F)F)c4)nnc3c21` [Example 53, (1-Aza-bicyclo[2.2.1]hept-4-ylmethyl)-[9-methyl-3-(3-trifluoromethoxy-phenyl)-8,9-dihydro-7H-6-oxa-1,2,3a,4,9-pentaaza-cyclopenta[a]naphthalen-5-yl]-amine], the concentration for half-maximal inhibition (IC50) on PIM-2 is greater than 1 µM; against PIM-1, 0.1 to 1 µM.

Broadly, the IC50 is the concentration that gives 50% inhibition.
